From patent publication US11655235B2, “Pyrrolidine and piperidine compounds” (YUHAN CORPORATION, priority 2019, dated 2023)
Like-named read-outs stand apart in the source and are kept apart here.

Experiments:
Assay type in all cases: biochemical
recombinant human DPP8 = target: T1, recombinant human DPP8 (Homo sapiens, UniProt Q6V1X1); experiment: DPP8 inhibition, fluorogenic substrate Z-Ala-Pro-AMC
T1 construct: purchased PBS Bioscience
Description: The compounds according to the present technology were evaluated in terms of the inhibitory effect on the activity of dipeptidyl peptidases including FAP by using a substrate producing fluorescent substances upon enzymatic decomposition. The test was conducted at 25° C. to get a final reaction volume of 100 μL in a 96 black well plate. […] Briefly, the test compounds were dissolved in dimethyl sulfoxide (DMSO) at a concentration of 20 mM and then subjected to serial dilution, thereby creating an 8 point curve. As for the control group, a 6 point curve created by serial dilution of Talabostat in the same buffer solution was used. Fluorescence intensity was measured using a microplate reader (Flexstation3, Molecular Devices) under the wavelength condition exciting at 380 nm and reading the emission at 460 nm. The inhibitory effect of the test compounds was measured as a decrease (%) in the signal rate as compared to the control group without any inhibitor. Data was fixed to a logistic model with four variables and IC50 value was calculated using GraphPad Prism program. As for recombinant human DPP4 (R&D Systems), 25 mM tris (pH 8.0) buffer as a buffer solution and H-Gly-Pro-AMC (Bachem) as a substrate were used. As for recombinant human DPP7 (R&D Systems), 25 mM MES (pH 6.0) buffer as a buffer solution and Lys-Pro-AMC (Bachem) as a substrate were used. As for recombinant human DPP8 (PBS Bioscience), as a buffer solution, a 10 mM tris (pH 7.4) buffer comprising 10 mM of magnesium chloride and 0.05% of Tween 20, and Z-Ala-Pro-AMC (BPS Bioscience) as a substrate were used. As for recombinant human DPP9 (R&D Systems), a 25 mM tris (pH 8.0) buffer as a buffer solution and H-Gly-Pro-AMC (Bachem) as a substrate were used. As for recombinant human PREP (R&D System), as a buffer solution, a 25 mM tris (pH 7.5) buffer comprising 250 mM sodium chloride and 2.5 mM DTT (Dithiolthreitol), and Z-Gly-Pro-AMC (Bachem) as a substrate were used. The evaluation was made by using 10 ng of DPP4, PDD7, and PREP, 20 ng of DPP8, and 50 ng of DPP9 based on the final reaction. In the evaluation of DPP4, the test compounds were subjected to serial dilution in a buffer under the condition containing up to 0.1% of DMSO. In the evaluation of DPP7, DPP8, DPP9, and PREP, the test compounds were subjected to serial dilution in each buffer under the condition containing up to 0.5% of DMSO.

recombinant human DPP7 = target: T2, recombinant human DPP7 (Homo sapiens, UniProt Q9UHL4); experiment: DPP7 inhibition, fluorogenic substrate Lys-Pro-AMC
T2 construct: purchased R&D Systems
Method in brief: (§1)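 Enzyme per reaction: 50 ng DPP9, 20 ng DPP8, 10 ng each DPP7 and PREP. Compounds were serially diluted (8 points, up to 0.5% DMSO) and incubated at 25 °C.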

recombinant human PREP = target: T3, recombinant human PREP (Homo sapiens, UniProt P48147); experiment: PREP inhibition, fluorogenic substrate Z-Gly-Pro-AMC; conditions: Inhibitory Activity (IC50, nM) PREP
T3 construct: purchased R&D System
T3 sequence (P48147 1-710): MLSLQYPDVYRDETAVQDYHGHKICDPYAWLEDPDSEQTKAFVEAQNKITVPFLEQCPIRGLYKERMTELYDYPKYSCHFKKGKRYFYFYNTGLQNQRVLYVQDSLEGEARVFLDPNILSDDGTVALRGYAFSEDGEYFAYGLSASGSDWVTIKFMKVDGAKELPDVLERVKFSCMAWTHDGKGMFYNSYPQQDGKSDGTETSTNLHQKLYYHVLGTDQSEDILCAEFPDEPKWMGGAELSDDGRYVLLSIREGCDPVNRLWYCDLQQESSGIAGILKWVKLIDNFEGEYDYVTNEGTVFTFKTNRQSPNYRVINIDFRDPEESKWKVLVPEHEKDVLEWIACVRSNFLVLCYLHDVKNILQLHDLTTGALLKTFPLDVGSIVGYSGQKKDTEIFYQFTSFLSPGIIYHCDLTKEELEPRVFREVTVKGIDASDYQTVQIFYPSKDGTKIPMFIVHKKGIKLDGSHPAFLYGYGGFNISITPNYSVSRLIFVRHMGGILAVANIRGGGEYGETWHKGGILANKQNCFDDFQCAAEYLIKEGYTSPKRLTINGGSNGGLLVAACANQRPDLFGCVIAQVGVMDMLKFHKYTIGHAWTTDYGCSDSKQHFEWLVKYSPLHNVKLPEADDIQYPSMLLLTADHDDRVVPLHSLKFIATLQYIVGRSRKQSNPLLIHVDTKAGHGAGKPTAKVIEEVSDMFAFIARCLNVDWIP
Method in brief: as §1

recombinant human DPP9 = target: T4, recombinant human DPP9 (Homo sapiens, UniProt Q86TI2); experiment: DPP9 inhibition, fluorogenic substrate H-Gly-Pro-AMC
T4 construct: purchased R&D Systems
T4 sequence (Q86TI2 whole entry): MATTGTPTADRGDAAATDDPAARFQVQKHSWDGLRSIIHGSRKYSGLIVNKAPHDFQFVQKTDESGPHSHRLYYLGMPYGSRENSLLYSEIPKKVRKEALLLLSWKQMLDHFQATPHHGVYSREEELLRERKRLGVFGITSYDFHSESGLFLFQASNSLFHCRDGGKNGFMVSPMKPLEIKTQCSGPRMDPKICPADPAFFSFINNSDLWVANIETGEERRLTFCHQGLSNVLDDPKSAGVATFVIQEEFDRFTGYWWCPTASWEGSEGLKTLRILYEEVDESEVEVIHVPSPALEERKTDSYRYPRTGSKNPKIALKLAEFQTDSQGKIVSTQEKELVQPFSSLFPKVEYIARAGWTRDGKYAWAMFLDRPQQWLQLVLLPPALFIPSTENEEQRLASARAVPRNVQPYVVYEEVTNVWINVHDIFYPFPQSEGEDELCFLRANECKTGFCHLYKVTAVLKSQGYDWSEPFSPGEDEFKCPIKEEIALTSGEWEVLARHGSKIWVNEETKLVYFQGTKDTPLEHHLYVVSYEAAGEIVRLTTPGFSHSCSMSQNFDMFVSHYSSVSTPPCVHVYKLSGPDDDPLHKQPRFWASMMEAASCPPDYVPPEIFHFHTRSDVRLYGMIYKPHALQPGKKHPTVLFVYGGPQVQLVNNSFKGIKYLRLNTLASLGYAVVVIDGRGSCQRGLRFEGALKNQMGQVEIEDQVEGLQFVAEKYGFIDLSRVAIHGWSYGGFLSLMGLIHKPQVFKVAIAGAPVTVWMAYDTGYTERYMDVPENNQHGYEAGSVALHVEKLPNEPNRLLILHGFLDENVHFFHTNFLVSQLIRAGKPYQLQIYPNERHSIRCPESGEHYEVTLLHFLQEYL
Method in brief: as §1

Recombinant human FAP = target: T5, Recombinant human FAP (Homo sapiens, UniProt Q12884); experiment: FAP inhibition, fluorogenic substrate Z-Gly-Pro-AMC
T5 construct: purchased R&D systems
T5 sequence (Q12884 1-760): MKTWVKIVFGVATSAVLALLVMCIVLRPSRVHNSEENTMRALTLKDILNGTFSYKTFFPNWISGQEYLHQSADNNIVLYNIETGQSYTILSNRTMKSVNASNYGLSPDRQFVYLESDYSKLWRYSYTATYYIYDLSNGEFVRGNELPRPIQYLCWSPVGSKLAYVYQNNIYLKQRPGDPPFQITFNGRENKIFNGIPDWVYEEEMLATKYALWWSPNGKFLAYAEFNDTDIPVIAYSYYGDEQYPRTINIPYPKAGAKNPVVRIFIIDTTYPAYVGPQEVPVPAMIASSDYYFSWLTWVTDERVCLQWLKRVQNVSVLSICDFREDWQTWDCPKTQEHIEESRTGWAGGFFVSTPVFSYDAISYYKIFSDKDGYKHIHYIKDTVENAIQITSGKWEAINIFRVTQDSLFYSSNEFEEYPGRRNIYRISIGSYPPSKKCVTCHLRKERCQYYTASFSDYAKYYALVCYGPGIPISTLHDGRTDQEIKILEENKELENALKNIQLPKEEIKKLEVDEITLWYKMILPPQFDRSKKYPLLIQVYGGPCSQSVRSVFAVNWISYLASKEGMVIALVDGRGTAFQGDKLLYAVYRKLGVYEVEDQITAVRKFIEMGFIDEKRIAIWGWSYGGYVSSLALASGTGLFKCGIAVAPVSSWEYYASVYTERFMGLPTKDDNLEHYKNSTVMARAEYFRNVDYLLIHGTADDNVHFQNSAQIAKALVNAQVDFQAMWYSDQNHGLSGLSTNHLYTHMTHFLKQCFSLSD
Method in brief: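 Recombinant human FAP, 10 ng per reaction, in 50 mM Tris pH 7.5 with 1 M NaCl and 1 mg/ml BSA at 25° C; substrate Z-Gly-Pro-AMC, ≤0.1% DMSO. AMC fluorescence read at ex 380/em 460 nm; % signal-rate decrease vs no-inhibitor control, 8-point curves fitted to a four-parameter logistic for IC50.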

[1] = 25° C., Z-Ala-Pro-AMC substrate
[2] = 25° C., Z-Gly-Pro-AMC substrate
[3] = 25° C., H-Gly-Pro-AMC substrate
[4] = recombinant human FAP, substrate Z-Gly-Pro-AMC

T1 sequence (Q6V1X1 whole entry): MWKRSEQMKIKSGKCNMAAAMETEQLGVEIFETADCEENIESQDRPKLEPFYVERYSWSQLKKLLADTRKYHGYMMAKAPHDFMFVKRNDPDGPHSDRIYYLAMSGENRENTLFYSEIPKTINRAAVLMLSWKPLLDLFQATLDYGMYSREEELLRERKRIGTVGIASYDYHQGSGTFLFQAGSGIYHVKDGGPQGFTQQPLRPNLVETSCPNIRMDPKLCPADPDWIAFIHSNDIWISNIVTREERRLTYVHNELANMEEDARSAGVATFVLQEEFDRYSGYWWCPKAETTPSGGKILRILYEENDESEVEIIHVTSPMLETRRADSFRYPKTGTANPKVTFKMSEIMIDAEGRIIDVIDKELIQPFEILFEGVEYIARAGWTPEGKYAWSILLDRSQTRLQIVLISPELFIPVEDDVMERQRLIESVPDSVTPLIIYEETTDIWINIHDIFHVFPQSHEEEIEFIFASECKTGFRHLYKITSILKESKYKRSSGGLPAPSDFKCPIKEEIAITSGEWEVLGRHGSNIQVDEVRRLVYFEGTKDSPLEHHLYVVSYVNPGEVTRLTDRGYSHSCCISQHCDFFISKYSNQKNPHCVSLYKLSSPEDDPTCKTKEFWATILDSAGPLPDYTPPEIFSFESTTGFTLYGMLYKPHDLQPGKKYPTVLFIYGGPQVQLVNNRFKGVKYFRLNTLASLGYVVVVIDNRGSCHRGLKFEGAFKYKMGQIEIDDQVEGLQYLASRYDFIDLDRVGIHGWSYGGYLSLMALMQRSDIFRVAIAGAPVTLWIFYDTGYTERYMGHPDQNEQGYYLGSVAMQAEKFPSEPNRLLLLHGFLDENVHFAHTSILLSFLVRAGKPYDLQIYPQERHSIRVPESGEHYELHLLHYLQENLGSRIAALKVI

SMILES	IC50 (recombinant human DPP8; [1]) [µM]	IC50 (recombinant human DPP7) [µM]	IC50 (recombinant human PREP; [2]) [nM]	IC50 (recombinant human DPP9; [3]) [µM]	IC50 (Recombinant human FAP; [2]) [µM]	IC50 (recombinant human DPP8; recombinant human DPP8) [µM]	IC50 (recombinant human DPP7; recombinant human DPP7) [µM]	IC50 (recombinant human PREP; recombinant human PREP) [nM]	IC50 (recombinant human DPP9; recombinant human DPP9) [µM]	IC50 (Recombinant human FAP; [4]) [µM]
CN(c1cccc2cnccc12)[C@H]1CCN(CC(=O)N2CCC[C@H]2C#N)C1 [Example 148, (2S)-1-[2-[(3S)-3-[5-isoquinolyl(methyl)amino]pyrrolidin-1-yl]acetyl]pyrrolidine-2-carbonitrile]	86.6	10.8	3810	29.3	0.0073	–	–	–	–	–
Cc1c(N(C)[C@H]2CCN(CC(=O)N3CCC[C@H]3C#N)C2)cnc2ccccc12 [Example 149, (2S)-1-[2-[(3S)-3-[methyl-(4-methyl-3-quinolyl)amino]pyrrolidin-1-yl]acetyl]pyrrolidine-2-carbonitrile]	≥ 100	3.97	1620	49.1	0.0099	–	–	–	–	–
Cc1ccc2ncc(N(C)[C@H]3CCN(CC(=O)N4CCC[C@H]4C#N)C3)cc2c1 [Example 150, (2S)-1-[2-[(3S)-3-[methyl-(6-methyl-3-quinolyl)amino]pyrrolidin-1-yl]acetyl]pyrrolidine-2-carbonitrile]	≥ 100	1.83	2640	39.6	0.0011	–	–	–	–	–
CN(c1cnc2ccc(F)cc2c1)[C@H]1CCN(CC(=O)N2CCC[C@H]2C#N)C1 [Example 151, (S)-1-(2-((S)-3-((6-fluoroquinolin-3-yl)(methyl)amino)pyrrolidin-1-yl)acetyl)pyrrolidine-2-carbonitrile]	12.3	2.55	3090	23.9	0.0016	–	–	–	–	–
COc1ccc2ncc(N(C)[C@H]3CCN(CC(=O)N4CCC[C@H]4C#N)C3)cc2c1 [Example 152, (S)-1-(2-((S)-3-((6-methoxyquinolin-3-yl)(methyl)amino)pyrrolidin-1-yl)acetyl)pyrrolidine-2-carbonitrile]	≥ 100	1.66	4130	29	0.0025	–	–	–	–	–
COc1cccc2cc(N(C)[C@H]3CCN(CC(=O)N4CCC[C@H]4C#N)C3)cnc12 [Example 154, (S)-1-(2-((S)-3-((8-methoxyquinolin-3-yl)(methyl)amino)pyrrolidin-1-yl)acetyl)pyrrolidine-2-carbonitrile]	22	3.31	970	41.7	0.0052	–	–	–	–	–
N#C[C@@H]1CCCN1C(=O)CN1CC[C@@H](Nc2cccc3ncccc23)C1 [Example 161, (S)-1-(2-((R)-3-(quinolin-5-ylamino)pyrrolidin-1-yl)acetyl)pyrrolidine-2-carbonitrile]	–	–	–	–	–	41.5	5.45	4250	25.4	0.0014
N#C[C@@H]1CCCN1C(=O)CN1CC[C@@H](Nc2ccc3ncccc3c2)C1 [Example 162, (2S)-1-[2-[(3R)-3-(6-quinolylamino)pyrrolidin-1-yl]acetyl]pyrrolidine-2-carbonitrile]	–	–	–	–	–	≥ 100	2.34	2610	14.9	0.0052
N#C[C@@H]1C[C@H](F)CN1C(=O)CN1CC[C@@H](Nc2cnc3ccccc3c2)C1 [Example 165, (2S,4S)-4-fluoro-1-[2-[(3R)-3-(3-quinolylamino)pyrrolidin-1-yl]acetyl]pyrrolidine-2-carbonitrile]	–	–	–	–	–	≥ 100	1.15	3970	7.55	0.0023
N#C[C@@H]1C[C@H](F)CN1C(=O)CN1CC[C@@H](Nc2cccc3ncccc23)C1 [Example 166, (2S,4S)-4-fluoro-1-[2-[(3R)-3-(5-quinolylamino)pyrrolidin-1-yl]acetyl]pyrrolidine-2-carbonitrile]	–	–	–	–	–	6.16	0.958	769	1.83	0.0021
N#C[C@@H]1C[C@H](F)CN1C(=O)CN1CC[C@@H](Nc2ccc3ncccc3c2)C1 [Example 167, (2S,4S)-4-fluoro-1-[2-[(3R)-3-(6-quinolylamino)pyrrolidin-1-yl]acetyl]pyrrolidine-2-carbonitrile]	–	–	–	–	–	6.28	2.04	5860	2.56	0.0014
N#C[C@@H]1C[C@H](F)CN1C(=O)CN1CC[C@@H](Nc2ccnc3ccccc23)C1 [Example 170, (2S,4S)-4-fluoro-1-[2-[(3R)-3-(4-quinolylamino)pyrrolidin-1-yl]acetyl]pyrrolidine-2-carbonitrile]	–	–	–	–	–	14	0.302	7980	2.7	0.0035
N#C[C@@H]1C[C@H](F)CN1C(=O)CN1CCC(Nc2cncc3ccncc23)CC1 [Example 360, (2S,4S)-4-fluoro-1-[2-[4-(2,6-naphthyridin-4-ylamino)-1-piperidyl]acetyl]pyrrolidine-2-carbonitrile]	–	–	–	–	–	≥ 100	1.34	16400	7.35	0.0019
